Results reported in patent US20220128542A1, “TREATMENT EFFICIENCY EVALUATION” (TX MEDIC AB, priority 2019, published 2022).
Marks after values point to notes of the source that are not given here.

Tested on: brain of rats subjected to severe traumatic brain injury (sTBI)
Assay: HPLC of purine-pyrimidine metabolites (energy state, oxidative/nitrosative stress) in brain after sTBI (Example 1)
Format: in vivo, rat
Conditions: sacrifice day 7
Experimental: They were divided into three groups:
1) n=6 animals subjected to sTBI, with drug administration after 30 minutes and sacrifice at 2 days post-TBI (Acute phase 1)
2) n=6 animals subjected to sTBI, with drug administration after 30 minutes and sacrifice at 7 days post-TBI (Acute phase 2).
3) n=6 animals subjected to sTBI, with drug administration after 3 days and sacrifice at 7 days post-TBI (Chronic phase).
The drug treatment was a subcutaneous injection of 0.5 ml of LMW-DS (15 mg/kg) and administered according to the aforementioned schematic protocol.
After the wet weight (w.w.) determination, tissue preparation was affected as previously disclosed (Tavazzi et al., Neurosurgery. 2005; 56: 582-589; Vagnozzi et al., Neurosurgery. 2007; 61: 379-388; Tavazzi et al., Neurosurgery. 2007; 61: 390-395; Amorini et al., J Cell Mol Med. 2017; 21: 530-542.). Briefly, whole brain homogenization was performed with 7 ml of ice-cold, nitrogen-saturated, precipitating solution composed by CH3CN+10 mM KH2PO4, pH 7.40, (3:1; v:v), and using an Ultra-Turrax set at 24,000 rpm/min (Janke & Kunkel, Staufen, Germany). After centrifugation at 20,690×g, for 10 min at 4° C., the clear supernatants were saved, pellets were supplemented with 3 ml of the precipitating solution and homogenized again as described above. A second centrifugation was performed (20,690×g, for 10 min at 4° C.), pellets were saved, supernatants combined with those previously obtained, extracted by vigorous agitation with a double volume of HPLC-grade CHCl3 and centrifuged as above. The upper aqueous phases containing water-soluble low-molecular weight compounds were collected, subjected to chloroform washings for two more times (this procedure allowed the removal of all the organic solvent and of any lipid soluble compound from the buffered tissue extracts), adjusted in volumes with 10 mM KH2PO4, pH 7.40, to have ultimately aqueous 10% tissue homogenates and saved at −80° C. until assayed.
Aliquots of each deproteinized tissue samples were filtered through a 0.45 μm HV Millipore filter and loaded (200 μl) onto a Hypersil C-18, 250×4.6 mm, 5 μm particle size column, provided with its own guard column (Thermo Fisher Scientific, Rodano, Milan, Italy) and connected to an HPLC apparatus consisting of a Surveyor System (Thermo Fisher Scientific, Rodano, Milan, Italy) with a highly sensitive diode array detector (equipped with a 5 cm light path flow cell) and set up between 200 and 300 nm wavelength. Data acquisition and analysis were performed by a PC using the ChromQuest® software package provided by the HPLC manufacturer.
Metabolites belonging to the purine-pyrimidine profiles (listed below) and related to tissue energy state, mitochondrial function and relative to oxidative-nitrosative stresses were separated, in a single chromatographic run, according to slight modifications of existing ion-pairing HPLC methods (Lazzarino et al., Anal Biochem. 2003; 322: 51-59; Tavazzi et al., Clin Biochem. 2005; 38: 997-1008). Assignment and calculation of the compounds of interest in chromatographic runs of tissue extracts were carried out at the proper wavelengths (206, 234 and 260 nm) by comparing retention times, absorption spectra and areas of peaks with those of peaks of chromatographic runs of freshly-prepared ultra-pure standard mixtures with known concentrations. […]

[1] = Acute phase 2: 15 mg/kg s.c. 30 min post-sTBI
[2] = Chronic phase: 15 mg/kg s.c. 3 days post-sTBI

## sodium salt of dextran sulfate [LMW-DS]
[1]
  NO2 brain concentration: 226.40 ± 30.95^b nmol/g (w.w.)
  NO3 brain concentration: 198.56 ± 25.93^e, i nmol/g (w.w.)
  UDP brain concentration: 40.38 ± 8.50^a, i nmol/g (w.w.)
  UDP-Gal brain concentration: 145.14 ± 27.76 nmol/g (w.w.)
  UDP-GalNac brain concentration: 19.90 ± 3.12^a, e nmol/g (w.w.)
  UDP-Glc brain concentration: 44.44 ± 7.59^j nmol/g (w.w.)
  UDP-GlcNac brain concentration: 130.65 ± 28.41^a nmol/g (w.w.)
  UMP brain concentration: 138.73 ± 32.01^b nmol/g (w.w.)
  UTP brain concentration: 146.71 ± 32.68^e nmol/g (w.w.)
  acetyl-CoA brain concentration: 36.86 ± 4.11^e nmol/g (w.w.)
  adenine brain concentration: 58.16 ± 6.36^a, f nmol/g (w.w.)
  ascorbic acid brain concentration: 3512.58 ± 224.62^a, e nmol/g (w.w.)
  creatinine brain concentration: 37.27 ± 5.82^a, e, j nmol/g (w.w.)
  cytidine brain concentration: 16.18 ± 4.21^e nmol/g (w.w.)
  cytosine brain concentration: 15.70 ± 4.10^f nmol/g (w.w.)
  guanine brain concentration: 4.73 ± 1.07 nmol/g (w.w.)
  guanosine brain concentration: 17.90 ± 3.24^j nmol/g (w.w.)
  hypoxanthine brain concentration: 12.90 ± 2.58^a, j nmol/g (w.w.)
  inosine brain concentration: 85.52 ± 20.36^e nmol/g (w.w.)
  malonyl-CoA brain concentration: 11.29 ± 2.27^b nmol/g (w.w.)
  orotic acid brain concentration: 13.34 ± 3.65^a nmol/g (w.w.)
  thymidine brain concentration: 0.49 ± 0.20^f nmol/g (w.w.)
  uracil brain concentration: 19.40 ± 7.52^a, e nmol/g (w.w.)
  uric acid brain concentration: 19.17 ± 2.15^a, h, i nmol/g (w.w.)
  uridine brain concentration: 63.02 ± 9.66^b, e nmol/g (w.w.)
  xanthine brain concentration: 10.41 ± 2.11^f nmol/g (w.w.)
  β-pseudouridine brain concentration: 13.26 ± 3.16^a, e, j nmol/g (w.w.)
[2]
  ADO brain concentration: 89.97 ± 12.98^a nmol/g (w.w.)
  ADP brain concentration: 315.53 ± 46.53^a nmol/g (w.w.)
  ADP-ribose brain concentration: 173.94 ± 8.45^a nmol/g (w.w.)
  AMP brain concentration: 90.01 ± 21.24^a nmol/g (w.w.)
  ATP brain concentration: 1381.03 ± 212.64^a nmol/g (w.w.)
  CDP brain concentration: 23.55 ± 6.45^a nmol/g (w.w.)
  CDP choline brain concentration: 8.37 ± 2.19 nmol/g (w.w.)
  CMP brain concentration: 20.51 ± 3.73^a, f nmol/g (w.w.)
  CTP brain concentration: 25.23 ± 2.93^a, f nmol/g (w.w.)
  CoA-SH brain concentration: 27.58 ± 6.24^f nmol/g (w.w.)
  GDP brain concentration: 173.05 ± 28.68^a, e nmol/g (w.w.)
  GDP glucose brain concentration: 43.85 ± 5.06^b nmol/g (w.w.)
  GMP brain concentration: 148.56 ± 31.21^a nmol/g (w.w.)
  GSH brain concentration: 2608.67 ± 358.07^a, e nmol/g (w.w.)
  GSSG brain concentration: 231.08 ± 44.34^b, f nmol/g (w.w.)
  GTP brain concentration: 290.92 ± 34.68^a, f nmol/g (w.w.)
  IMP brain concentration: 99.29 ± 13.82^a nmol/g (w.w.)
  MDA brain concentration: 11.62 ± 3.90^a, e nmol/g (w.w.)
  NAA brain concentration: 6375.36 ± 974.12^a, e nmol/g (w.w.)
  NADH brain concentration: 11.78 ± 3.32^e nmol/g (w.w.)
  NADPH brain concentration: 7.34 ± 2.65^f nmol/g (w.w.)
  NADP^+ brain concentration: 16.44 ± 2.66^a, f nmol/g (w.w.)
  NAD^+ brain concentration: 301.13 ± 29.90^a nmol/g (w.w.)
  NO2 brain concentration: 217.67 ± 55.04^a nmol/g (w.w.)
  NO3 brain concentration: 241.27 ± 18.84^e nmol/g (w.w.)
  UDP brain concentration: 57.40 ± 5.88^a, f nmol/g (w.w.)
  UDP-Gal brain concentration: 122.29 ± 12.15 nmol/g (w.w.)
  UDP-GalNac brain concentration: 21.84 ± 2.80^a, e nmol/g (w.w.)
  UDP-Glc brain concentration: 35.79 ± 3.45^b nmol/g (w.w.)
  UDP-GlcNac brain concentration: 129.42 ± 15.88^b nmol/g (w.w.)
  UMP brain concentration: 103.11 ± 29.79 nmol/g (w.w.)
  UTP brain concentration: 136.80 ± 33.25^f nmol/g (w.w.)
  acetyl-CoA brain concentration: 35.68 ± 6.55^e nmol/g (w.w.)
  adenine brain concentration: 52.94 ± 8.59^a, f nmol/g (w.w.)
  ascorbic acid brain concentration: 3375.03 ± 856.41^a, e nmol/g (w.w.)
  creatinine brain concentration: 51.25 ± 10.17^a, f nmol/g (w.w.)
  cytidine brain concentration: 14.71 ± 2.83^e nmol/g (w.w.)
  cytosine brain concentration: 15.58 ± 2.50^b, f nmol/g (w.w.)
  guanine brain concentration: 5.31 ± 1.04^b nmol/g (w.w.)
  guanosine brain concentration: 28.87 ± 7.60^a, f nmol/g (w.w.)
  hypoxanthine brain concentration: 17.97 ± 4.49^a nmol/g (w.w.)
  inosine brain concentration: 105.81 ± 25.57^f nmol/g (w.w.)
  malonyl-CoA brain concentration: 10.00 ± 1.95^b nmol/g (w.w.)
  orotic acid brain concentration: 12.05 ± 1.50^a nmol/g (w.w.)
  thymidine brain concentration: 0.71 ± 0.11 nmol/g (w.w.)
  uracil brain concentration: 16.57 ± 2.99^a, f nmol/g (w.w.)
  uric acid brain concentration: 27.77 ± 3.60^a nmol/g (w.w.)
  uridine brain concentration: 63.28 ± 3.37^f nmol/g (w.w.)
  xanthine brain concentration: 9.35 ± 0.83^f nmol/g (w.w.)
  β-pseudouridine brain concentration: 18.62 ± 2.80^a nmol/g (w.w.)
